Earlier results in US20160215053A1, “CXCL12 (CHEMOKINE (C-X-C MOTIF) LIGAND 12) AND IGFBP2 INHIBITORS FOR THE APPLICATION IN THE TREATMENT OF DIABETES MELLITUS ASSOCIATED PANCREATIC CANCER” (priority 2013, published 2016).
“Also recorded” adds a separate entry of the source. Like-named read-outs stand apart in the source and are kept apart here. Where no end group is shown, it is not given here.

How the values were obtained:
PSC = conditions: literature references 19-31
BxPC3 cells = conditions: reference 40

Molecule: CC=O [Acetaldehide]
- Effect on PSC (PSC): increased αSMA expression

Molecule: CCO [Ethanol]
- Effect on PSC (PSC): type-1 collagen production; also recorded: increased αSMA expression

Molecule: CCCCC[C@H](O)/C=C/[C@H]1[C@H](O)CC(=O)[C@@H]1C/C=C\CCCC(=O)O [Prosztaglandin E2]
- Effect on PSC (PSC): increased proliferation, migration

Molecule: Nc1ccn([C@@H]2O[C@H](CO)[C@@H](O)C2(F)F)c(=O)n1 [gemcitabine]
- Proportion of cancer cells undergoing gemcitabine induced apoptosis (BxPC3 cells; BxPC3 cells treated with hPSC-CM): 9.4%
- Proportion of cancer cells undergoing gemcitabine induced apoptosis (BxPC3 cells; BxPC3 cells, without hPSC-CM treatment): 38.9%

Molecule: Galektin-1: factor that induces PSC activation/trans-differentiation
- Effect on PSC (PSC): increased proliferation

Molecule: PDGF
- Effect on PSC (PSC; cell proliferation): increased proliferation
- Effect on PSC (PSC; fibronectin synthesis): increased FN synthesis

Molecule: TGFα: factor that induces PSC activation/trans-differentiation
- Effect on PSC (PSC): increased proliferation, migration

Molecule: TNFα
- Effect on PSC (PSC): increased αSMA expression

Molecule: bFGF: factor that induces PSC activation/trans-differentiation
- Effect on PSC (PSC): increased proliferation

Molecule: gasztrin: factor that induces PSC activation/trans-differentiation (QGPWLEEEEEAYGWMDF; ends and bridges not checked; UniProt P01350 76-92, looked up)
- Effect on PSC (PSC; cell proliferation): decreased proliferation
- Effect on PSC (PSC; collagen synthesis): increased collagen synthesis,

B1: CCK: factor that induces PSC activation/trans-differentiation (peptide, UniProt P06307 21-115, looked up)
Cholecystokinin: QPVPPADPAGSGLQRAEEAPRRQLRVSQRTDGESRAHLGALLARYIQQARKAPSGRMSIVKNLQNLDPSHRISDRDYMGWMDFGRRSAEEYEYPS
modifications: Cholecystokinin
- Effect on PSC (PSC; cell proliferation): decreased proliferation
- Effect on PSC (PSC; collagen synthesis): increased collagen synthesis,

B2: IL-10: factor that induces PSC activation/trans-differentiation (protein, UniProt P22301 19-178, looked up)
Interleukin-10: SPGQGTQSENSCTHFPGNLPNMLRDLRDAFSRVKTFFQMKDQLDNLLLKESLLEDFKGYLGCQALSEMIQFYLEEVMPQAENQDPDIKAHVNSLGENLKTLRLRLRRCHRFLPCENKSKAVEQVKNAFNKLQEKGIYKAMSEFDIFINYIEAYMTMKIRN
- Effect on PSC (PSC): increased type-1 collagen production

B3: Activin A: factor that induces PSC activation/trans-differentiation (protein, UniProt P08476 311-426, looked up)
Inhibin beta A chain: GLECDGKVNICCKKQFFVSFKDIGWNDWIIAPSGYHANYCEGECPSHIAGTSGSSLSFHSTVINHYRMRGHSPFANLKSCCVPTKLRPMSMLYYDDGQNIIKKDIQNMIVEECGCS
modifications: Inhibin beta A chain
- Effect on PSC (PSC): increased αSMA expression
